Experimental data as given in patent US20060241037A1, “Compositions comprising trefoil factor family peptides and/or mucoadhesives and proton pump ihhibitor prodrugs” (ALLERGAN INC., priority 2003, published 2006).

Columns and labels:
[1] = system: Caco-2 cells; assay: Membrane permeability (Papp) across Caco-2 cell monolayer, apical to basolateral; type: in vitro ADME; conditions: Caco-2, apical to basolateral, 10 μM, 37° C.
Description: Determination of membrane permeability in all examples described herein was accomplished by the following procedure. This procedure is also used to determine whether a given prodrug falls within the scope of those claims given herein which relate to membrane permeability.
Caco-2 cells were seeded on Costar™ 12 mm diameter, 0.4 μm pore size transwell filters, and were cultured at 37° C., 5% CO2 in a humidified tissue culture chamber.
DMEM was equilibrated as a transport buffer in 37° C. water bath an hour before experiment. The cells were then equilibrated in transport buffer for 1 hr at 37° C.
Dosing solution (10 μM) was prepared by adding a 20 μL aliquot of a 10 mM stock solution of the prodrug to 20 mL of transport buffer.
Transport across Caco-2 cell monolayer was measured at 37° C., in the apical to basolateral direction (n=3).
Transport buffer was removed from both apical and basolateral compartment of filters. Dosing solution (0.2 mL) was added to the apical compartment of the cell layers on transwell filters, and 0.8 ml fresh pre-warmed transport buffer was added to basolateral compartment. Timing was started for transport, and at 5, 20, and 60 min after transport started, sample fluid (400 μL) was collected from the basolateral compartment. Fresh transport buffer (400 μL) was added back to the basolateral compartment, and the fluid was thoroughly mixed.
The apparent permeability coefficient (Papp, cm/sec), otherwise known herein as the membrane permeability, is determined from the following relationship: Papp=J/(ACo) where J (pmol/min) is the transport rate, meaning the rate of prodrug movement through the cell layer, A (cm^2) is the filter surface area, and Co (μM) is the initial dosing concentration.
Lucifer yellow (LY) was used as a paracellular permeability reference standard to determine integrity of cell layers used in the experiments. […] Fluorescence level in basolateral fluid sampled at 5, 20, and 60 min post dose was determined using Fluostar Galaxy (BMG Labtechnologies, Durham, N.C.) at excitation/emission wavelengths of 485/520 nm. […]

[2] = Pharmacokinetic study in rats (oral / intravenous), systemic half-life by LC-MS/MS; type: in vivo, rats (Sprague-Dawley); design: key to T1/2 Prodrug: NC: plasma concentration of prodrug was too low to calculate half-life, or undetected; conditions: Rat, SD in parenthesis; for T1/2 Prodrug: systemic half-life of intact prodrug; for T1/2 PPI: systemic half-life of the proton pump inhibitor
Description: (§1) Blood concentrations of the compounds omeprazole, lansoprazole, pantoprazole, rabeprazole, and test compounds were quantified using an achiral liquid chromatography tandem mass spectrometry method (LC-MS/MS). Systemic pharmacokinetic parameters were determined for omeprazole or lansoprazole using non-compartmental analysis in Watson® version 6.3, available from InnaPhase Corporation, Philadelphia, Pa.

[3] = Pharmacokinetic study in dogs (oral / intravenous), systemic half-life by LC-MS/MS; type: in vivo, dogs (beagle); design: key to T1/2 Prodrug: NC: plasma concentration of prodrug was too low to calculate half-life, or undetected; conditions: for T1/2 Prodrug / T1/2 PPI / half-life: Dog, SD in parenthesis; for T1/2 Prodrug: systemic half-life of intact prodrug; for T1/2 PPI / half-life: systemic half-life of the proton pump inhibitor; for t1/2: systemic half-life of parent PPI in dogs after oral administration; for half-life: beagle, blood, po, read-out: T1/2 PPI (converted)
Description: as §1

T1/2 Prodrug [2] | T1/2 PPI ([2]; in h) | T1/2 Prodrug [3] | T1/2 PPI [3] | SMILES | other results
NC | 1.93 (1.41) | 12.4 min | 53.6 min | Cc1c(OCC(F)(F)F)ccnc1C[S+]([O-])c1nc2ccccc2n1S(=O)(=O)c1cccc(C(=O)O)c1 (stereo not shown) [Compound 7] | Permeability [1]: 0.16 ×10⁻⁶ cm/s; t1/2 [3]: 53.4 min
NC | 1.80 (1.20) | NC | 64.8 min | COc1ccc(S(=O)(=O)n2c([S+]([O-])Cc3nccc(OCC(F)(F)F)c3C)nc3ccccc32)cc1C(=O)O (stereo not shown) [Compound 8] | Permeability [1]: 0.23 ×10⁻⁶ cm/s; t1/2 [3]: 66 min
NC | 0.341 (0.151) | NC | 53.6 min | Cc1c(OCC(F)(F)F)ccnc1C[S+]([O-])c1nc2ccccc2n1S(=O)(=O)c1ccc(CC(=O)O)cc1 (stereo not shown) [Compound 9] | Permeability [1]: 0.34 ×10⁻⁶ cm/s; t1/2 [3]: 53.4 min
– | – | NC | 0.989 (0.307) | Cc1c(OCC(F)(F)F)ccnc1C[S+]([O-])c1nc2ccccc2n1S(=O)(=O)c1ccc(OCC(=O)O)cc1 (stereo not shown) [Compound 10] | –
NC | 0.933 (1.009) | NC | 0.873 (0.288) | Cc1c(OCC(F)(F)F)ccnc1C[S+]([O-])c1nc2ccccc2n1S(=O)(=O)c1ccc(OCC(C)(C)C(=O)O)cc1 (stereo not shown) [Compound 11] | –
– | – | NC | 55.9 min | Cc1c(OCC(F)(F)F)ccnc1C[S+]([O-])c1nc2ccccc2n1S(=O)(=O)c1ccc(CC(=O)O)c(CC(=O)O)c1 (stereo not shown) [Compound 12] | –
NC | 2.35 (1.22) | 7.32 min | 106 min | Cc1ccc(C(=O)O)cc1S(=O)(=O)n1c([S+]([O-])Cc2nccc(OCC(F)(F)F)c2C)nc2ccccc21 (stereo not shown) [Compound 13] | –
– | 0.536 (0.217) | 7.08 min | 83.4 min | COc1ccc(C(=O)O)cc1S(=O)(=O)n1c([S+]([O-])Cc2nccc(OCC(F)(F)F)c2C)nc2ccccc21 (stereo not shown) [Compound 14] | –
– | – | NC | 55.4 min | Cc1c(OCC(F)(F)F)ccnc1C[S+]([O-])c1nc2ccccc2n1S(=O)(=O)c1ccc(CC(=O)O)cc1C(C)C (stereo not shown) [Compound 15] | –
NC | 1.86 (0.74) | NC | 60 min | Cc1c(OCC(F)(F)F)ccnc1C[S+]([O-])c1nc2ccccc2n1S(=O)(=O)c1ccc(C(=O)O)c(OCC(=O)O)c1 (stereo not shown) [Compound 16] | –
– | – | 89.4 min | 67.8 min | Cc1cc(OCC(=O)O)cc(C(C)C)c1S(=O)(=O)n1c([S+]([O-])Cc2nccc(OCC(F)(F)F)c2C)nc2ccccc21 (stereo not shown) [Compound 17] | –
– | – | 5.39 min | 54.5 min | Cc1c(OCC(F)(F)F)ccnc1C[S+]([O-])c1nc2ccccc2n1S(=O)(=O)c1ccc(C(=O)O)cc1 (stereo not shown) [Compound 18] | –
– | – | 110 min | 29 min | Cc1ccc(S(=O)(=O)n2c([S+]([O-])Cc3nccc(OCC(F)(F)F)c3C)nc3ccccc32)cc1CCC(=O)O (stereo not shown) [Compound 19] | –
– | – | 67.2 min | 29.5 min | COCCCOc1ccnc(C[S+]([O-])c2nc3ccccc3n2S(=O)(=O)c2cccc(C(=O)O)c2)c1C (stereo not shown) [Compound 30] | –
– | – | 50.6 min | 51.3 min | COCCCOc1ccnc(C[S+]([O-])c2nc3ccccc3n2S(=O)(=O)c2cc(C(=O)O)ccc2C)c1C (stereo not shown) [Compound 31] | –
– | – | 31.6 min | 91.2 min | COCCCOc1ccnc(C[S+]([O-])c2nc3ccccc3n2S(=O)(=O)c2c(C)cc(OCC(=O)O)cc2C)c1C (stereo not shown) [Compound 32] | –
– | – | 44.8 min | 53.6 min | COCCCOc1ccnc(C[S+]([O-])c2nc3ccccc3n2S(=O)(=O)c2ccc(C(=O)O)cc2)c1C (stereo not shown) [Compound 33] | –
NC | 1.11 (0.71) | – | – | Cc1cc(OCC(=O)O)cc(C)c1S(=O)(=O)n1c([S+]([O-])Cc2nccc(OCC(F)(F)F)c2C)nc2ccccc21 (stereo not shown) [Compound 34] | –
NC | 1.84 (0.87) | – | – | Cc1c(OCC(F)(F)F)ccnc1C[S+]([O-])c1nc2ccccc2n1S(=O)(=O)c1ccc(OCC(=O)O)c(OCC(=O)O)c1 (stereo not shown) [Compound 35] | –
NC | 0.389 (0.085) | – | – | Cc1c(OCC(F)(F)F)ccnc1C[S+]([O-])c1nc2ccccc2n1S(=O)(=O)c1ccc(C(=O)O)cc1 (stereo not shown) [Compound 36] | –
NC | 2.19 (0.80) | – | – | Cc1cc(C(=O)O)ccc1S(=O)(=O)n1c([S+]([O-])Cc2nccc(OCC(F)(F)F)c2C)nc2ccccc21 (stereo not shown) [Compound 37] | –
– | 1.43 (0.42) | – | – | COc1ccc(S(=O)(=O)n2c([S+]([O-])Cc3nccc(OCC(F)(F)F)c3C)nc3ccccc32)cc1CCC(=O)O (stereo not shown) [Compound 38] | T1/2 Prodrug ([2]; in h): 1.04 (0.35)
– | – | – | – | Cc1c(OCC(F)(F)F)ccnc1C[S+]([O-])c1nc2ccccc2[nH]1 (stereo not shown) [Lansoprazole, reference compound] | half-life [3]: 34.4 min; t1/2 [3]: 34.2 min
– | – | – | – | COc1ccc2[nH]c([S+]([O-])Cc3ncc(C)c(OC)c3C)nc2c1 (stereo not shown) [Omeprazole, reference compound] | half-life [3]: 41.8 min; t1/2 [3]: 42 min
